# Test results from PMC5655689, “Therapeutic potential of the phosphino Cu(I) complex (HydroCuP) in the treatment of solid tumors” (Scientific Reports, 2017).
# Legend:
# [1] = set-up: method as in PMID 21388518, PMID 20486256; details: pH 7.4; cited from earlier work
# [2] = test system: 2D human cancer cell cultures; set-up: method as in PMID 18251492, PMID 21388518; details: cited from earlier work
# 26S proteasome = test system: 26S proteasome; set-up: method as in PMID 21388518; details: cited from earlier work
# [3] = test system: DRG explants from 15 day-embryonic Sprague-Dawley rats; assay: Neurotoxicity: neurite elongation in DRG explants; details: 48 h, DRG explants with NGF; OXP 5, 7.5, 10 μM; HydroCuP 5, 10, 20 μM
# Protocol: To investigate the potential neurotoxic effect of HydroCuP, we employed a well-established in vitro model based on organotypic cultures of DRG from 15-day-old rat embryos. Neurite elongation under NGF influence was evaluated in DRG explants. […] For comparison purposes, the effect induced by the reference drugs OXP and CDDP was also tested.
# OXP and HydroCuP toxicity at 48 h in DRG explants from 15 day-embryonic Sprague-Dawley rats. Representative images of neurite length in maturing DRG explants with different concentrations of OXP and HydroCuP (A). Bar: 500 µm.
# DRG from E15 Sprague-Dawley rats (Envigo, San Pietro al Natisone, Italy) were aseptically removed and cultured onto a single layer of rat tail collagen surfaces in 35-mm dishes as previously described[36].
# The DRG were incubated in AN2 medium [MEM added with 1.4 mM L-glutamine (Euroclone, Pero, Italy), 10% calf bovine serum (Hyclone, Thermo Scientific, Logan, UT) 50 µg/ml ascorbic acid, 0.6% glucose (Sigma-Aldrich) in the presence of 5 ng/ml nerve growth factor (NGF; Life Technologies, Monza, Italy) in a 5% CO2 humidified incubator at 37 °C.
# To evaluate the neurotoxicity of HydroCuP and OXP, the DRG explants were treated for 2 h with NGF and subsequently exposed to each drug at different concentrations for 48 h. OXP was tested at 5, 7.5 and 10 μM while 5, 10 and 20 μM of HydroCuP was used. DRG treated with AN2 medium supplemented with 5 ng/ml NGF alone were used as controls. Phase-contrast micrographs were taken, and the length of the longest neurite in each DRG was measured by Image J (NIH, Bethesda, MD), using a standard calibration grating photographed at the same magnification. A compound is considered neurotoxic when the mean neurite elongation is reduced by 50% or more after drug exposure vs control.
# [4] = test system: LoVo colorectal oxaliplatin-resistant xenograft; details: mouse, in vivo, ip, 30 mg/kg
# Protocol: (§1) To this aim, we developed the OXP-sensitive and OXP-resistant LoVo xenografts in BALB/c nu/nu mice. […] OXP-sensitive or OXP-resistant LoVo cells (1 × 10^7) were injected in the flank of mice. Once tumor was established (tumor volumes of about 0.4 cm^3, around 14 days after tumor inoculation), mice were randomly divided into six groups (6 animals per group, 8 controls). The HydroCuP-treated groups (6 mice each group) received daily 30 mg/kg by i.p. injection and the OXP-treated group was given 2 mg/kg by i.p. injection. At day 30, animals were sacrificed, and the inhibition of tumor growth was determined (Fig. 4, panel A). Measurements of body weights were recorded from day 14 every 2 days until the experimental endpoint (Fig. 4, panel B).
# (§2) (A) LoVo and LoVo-OXP tumor xenografts in 6-week-old BALB/c nu/nu mice by injecting 1 × 10^7 tumor cells subcutaneously on the left dorsal flank. After 24 h from tumor implantation, mice randomly divided into six groups (6 animals per group). Chemotherapy delayed until day 14 (tumor volumes of about 0.4 cm^3). From day 14, HydroCuP dosed daily at 30 mg/kg i.p., OXP dosed daily at 2 mg/kg i.p. At day 30, animals sacrificed, and the inhibition of tumor growth determined by comparing the volume of the control group and the treatment group expressed as percentage referred to the control animals. Error bars indicate the S.D. *p < 0.05, **p < 0.01, with respect to control. […] Body weight was measured every two days and was taken as a parameter of systemic toxicity. The error bars indicate the S.D. **P < 0.01; *P < 0.05.
# (§3) LoVo and LoVo-OXP tumor xenografts were established in 6-week-old BALB/c nu/nu mice by injecting 1 × 10^7 tumor cells subcutaneously (100 μL in serum free medium) on the left dorsal flank. After 24 h from tumor implantation, mice were randomly divided into six groups (6 animals per group, 8 controls). Chemotherapy was delayed until the tumor was about 0.4 cm^3 (day 14). From day 14, HydroCuP was dosed daily at 30 mg/kg i.p. whereas OXP was dosed daily at 2 mg/kg i.p. Measurements of body weights and tumor volumes were recorded from day 14 every 2 days until the experimental endpoint. The long axis (L) and the short axis (S) were measured with callipers, and the tumor volume (V) was calculated using the following equation: V = SxSxL/2. At day 30, animals were sacrificed, and the inhibition of tumor growth was determined by comparing the volume of the control group and the treatment group expressed as percentage referred to the control animals.
# [5] = test system: LoVo colorectal oxaliplatin-sensitive xenograft; details: mouse, in vivo, ip, 30 mg/kg
# Protocol: as §1, §2, §3
# [6] = test system: p-PERK and p-IRE1 (UPR pathway); assay: IHC analysis of p-PERK and p-IRE1 in LLC tumor samples; assay type: in vivo, mouse; details: later-stage regimen
# Description: In order to investigate the in vivo activation of the UPR induced by HydroCuP, the levels of the phospho-PERK (p-PERK) and phospho-IRE1 (p-IRE1) were detected in tumor samples derived from treated LCC-bearing mice (following later-stage regimen). […] In control samples, p-PERK staining was found moderate in cytoplasm (in about 40% cell population) and intense in perinuclear-ER (about 5% of cell population). […] With regard to the […], p-IRE1, control tumors were weakly positive in cytoplasm (in about 15% cell population).
# Figure 6 IHC analysis of p-PERK and p-IRE1 expression in LLC tumor samples. (A) Pictures show representative patterns of p-PERK and p-IRE1 expression by IHC in control LLC tumor samples (a and c) and in HydroCuP-treated tumor samples (b and d); magnification: ×10. (B) p-PERK (a) and p-IRE1 (b) values, evaluated in LLC tumor sections. The quantification of IHC images was performed by using Image J software. Columns indicate quantitative analysis in n = 3 different tumors per group; *P < 0.05.
# To evaluate p-PERK and p-IRE1 expression, five-micron-thick formalin-fixed, paraffin-embedded (FFPE) tumor samples of LLC models (3 tumors/group, 3 sections/tumor and 3 images/sections) were stained by IHC using anti-human p-PERK (Thr981, Santa Cruz) or p-IRE1 (Ser724, Abcam) primary antibodies according to the manufacturer’s instructions. IHC was performed using a Leica Bond III Autostainer (Leica). Antigen retrieval was performed in citrate buffer for 15 min. Sections were counter-stained with Mayer’s haematoxylin. IHC results were evaluated by one experienced pathologist with no prior knowledge of experimental data. The quantification of IHC images was performed by using Image J software.
# [7] = test system: LoVo human colon cancer spheroids; assay: 3D spheroid cell viability, acid phosphatase (APH) assay, LoVo; assay type: cell-based; details: 72 h
# Protocol: In order to improve the predictive capacity of the in vitro assays, we tested HydroCuP activity in two 3D cell cultures of human colon cancer cells, HCT-15 and LoVo. The colon cancer spheroids were treated with HydroCuP for 72 h and the cell viability was assessed by means of the acid phosphatase (APH) assay (Fig. 1, panel A).
# Figure 1 Activity in 3D cell cultures. (A) Spheroids (2.5 × 10^3 cells/well) were treated for 72 h with increasing concentrations of tested compounds. The growth inhibitory effect was evaluated by means of APH test. IC50 values were calculated from the dose-survival curves by four parameter logistic model (P < 0.05). SD = standard deviation.
# Spheroids were initiated in liquid overlay by seeding 2.5 × 10^3 HCT-15 and LoVo cells/well in phenol red-free RPMI-1640 medium (Sigma Chemical Co.), containing 10% FCS and supplemented with 20% methyl cellulose stock solution. A total of 150 μl of this cell suspension was transferred to each well of a round bottom non-tissue culture treated 96 well-plate (Greiner Bio-one, Kremsmünster, Austria) to allow spheroid formation within 72 h.
# A modified APH assay, which is based on quantification of cytosolic acid phosphatase activity, was used for determining cell viability in spheroids. Briefly, the pre-seeded spheroids were treated with fresh medium containing the compound to be studied at the appropriate concentration (range 5–150 μM). Triplicate cultures were established for each treatment. After 72 h, each well was treated with 100 μL of the assay buffer (0.1 M sodium acetate, 0.1% Triton-X-100, supplemented with ImmunoPure p-nitrophenyl phosphate; Sigma Chemical Co.) and, following 3 h of incubation, 10 μL of 1 M NaOH solution were added. The inhibition of the cell growth induced by the tested complexes was detected by measuring the absorbance of each well at 405 nm, using a Bio-Rad 680 microplate reader. Mean absorbance for each drug dose was expressed as a percentage of the control untreated well absorbance (T/C) and plotted vs drug concentration. IC50 values, the drug concentrations that reduce the mean absorbance at 405 nm 50% of those in the untreated control wells, were calculated by four-parameter logistic (4-PL) model. Evaluation was based on means from at least four independent experiments.
structure (smiles),measurement,setting,value
"F[P-](F)(F)(F)(F)F.OC[P+](CO)(CO)[Cu-3]([P+](CO)(CO)CO)([P+](CO)(CO)CO)[P+](CO)(CO)CO [HydroCuP, [Cu(thp)4][PF6]]",Water solubility,[1],> 2000 µg/mL
same,Fold more cytotoxic than CDDP,[2],up to 50
same,Fold more cytotoxic than OXP,[2],≤ 30
same,"Effect on CT-L, T-L and C-L catalytic activities of 26S proteasome",26S proteasome,"inhibit chymotrypsin-like (CT-L), trypsin-like (T-L) and caspase-like (C-L) catalytic activities of 26S proteasome"
same,Neurotoxic effect (neurite elongation),[3],no neurotoxic effect even at the highest concentrations
same,Body weight and health vs control group,[4],No significant difference in body weight
same,Body weight and health vs control group,[5],No significant difference in body weight
same,Cytoplasmic p-PERK positivity vs control,[6],no difference in cytoplasmic p-PERK positivity
same,Perinuclear-ER p-PERK staining,[6]; control about 5% of cell population,about 30%
same,Cytoplasmic p-IRE1 positivity (cell population),[6]; control about 15% cell population,about 35%
same,IC50 fold lower than CDDP,[7],about 2.5
same,IC50,"[7]; APH test, read-out: IC50 (μM) ± SD LoVo",23.3 ± 3.2 µM
